From ChEMBL document CHEMBL1201862, “PubChem BioAssay data set” (2004) come the findings set out here.

Assay [1] has as its target Megakaryocyte-associated tyrosine-protein kinase (Homo sapiens, UniProt P42679). The assay is classed as functional.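 Also: affinity measured as one member of a kinase panel (Navigating the Kinome) against MATK.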
The target of assay [2] is Protein kinase C zeta type (Homo sapiens, UniProt Q05513). The assay is classed as functional.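 Also: measured as one member of a broad kinase profiling panel.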
In assay [3] the target is RAC-gamma serine/threonine-protein kinase (Homo sapiens, UniProt Q9Y243). The assay is classed as functional.
Assay [4] concerns the target Serine/threonine-protein kinase D2 (Homo sapiens, UniProt Q9BZL6). The assay is classed as functional.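 Also: measured against PRKD2 as one member of a kinome-wide kinase profiling panel.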
Assay [5] has as its target Tyrosine-protein kinase SYK (Homo sapiens, UniProt P43405). Format: functional.
For assay [6], the target named is Tyrosine-protein kinase receptor TYRO3 (Homo sapiens, UniProt Q06418). Format: functional.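 Also: TYRO3 value obtained as one member of a kinome-wide profiling panel.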
Assay [7] has as its target Serine/threonine-protein kinase 17A (Homo sapiens, UniProt Q9UEE5). Format: functional.
In assay [8] the target is Death-associated protein kinase 3 (Homo sapiens, UniProt O43293). The assay is classed as functional.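 Also: measured as one member of a kinome-wide profiling panel.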
In assay [9] the target is Tyrosine-protein kinase Lyn (Homo sapiens, UniProt P07948). Format: functional.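 Also: lyn as one member of a kinase panel.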
Assay [10] has as its target Serine/threonine-protein kinase TAO1 (Homo sapiens, UniProt Q7L7X3). The assay is classed as functional.
For assay [11], the target named is Proto-oncogene tyrosine-protein kinase ROS (Homo sapiens, UniProt P08922). The assay is classed as functional.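 Also: ROS1 tested as one member of a kinome-wide kinase panel.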
The target in assay [12] is Testis-specific serine/threonine-protein kinase 1 (Homo sapiens, UniProt Q9BXA7). Format: functional.
Assay [13] addresses MAP/microtubule affinity-regulating kinase 3 (Homo sapiens, UniProt P27448). Format: functional.
Assay [14] deals with Insulin-like growth factor 1 receptor (Homo sapiens, UniProt P08069). Kind of assay: Navigating the Kinome. Panel member name: IGF1R. Format: functional.
The target in assay [15] is Mitogen-activated protein kinase 12 (Homo sapiens, UniProt P53778). The assay is classed as functional.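 Also: measured as one member of a kinome-wide kinase profiling panel.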
For assay [16], the target named is Dual specificity tyrosine-phosphorylation-regulated kinase 1A (Homo sapiens, UniProt Q13627). The assay is classed as functional.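 Also: measured against DYRK1A as one member of a broad kinome profiling panel.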
The nature of assay [17]: Luminescence Cell-Based Dose Response HTS to Identify Activators of Luciferase Translation or Activity in H4 […] Cells. [Related pubchem assays: 1829 (Project Summary), 1814 (Primary HTS)]. Format: functional.
Assay [18] in a line: viability of HCT116 lacking mutant beta-catenin – cell-based, human colon tumor, dose response (AID 1045).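 Also: HCT116 colon tumor cells with beta catenin knocked out; cells exposed to compound for 60 hours.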 The assay is classed as functional.
Assay [19] concerns the target T1, Mannose-6-phosphate isomerase (Homo sapiens, UniProt P34949).
T1 sequence (P34949 whole entry): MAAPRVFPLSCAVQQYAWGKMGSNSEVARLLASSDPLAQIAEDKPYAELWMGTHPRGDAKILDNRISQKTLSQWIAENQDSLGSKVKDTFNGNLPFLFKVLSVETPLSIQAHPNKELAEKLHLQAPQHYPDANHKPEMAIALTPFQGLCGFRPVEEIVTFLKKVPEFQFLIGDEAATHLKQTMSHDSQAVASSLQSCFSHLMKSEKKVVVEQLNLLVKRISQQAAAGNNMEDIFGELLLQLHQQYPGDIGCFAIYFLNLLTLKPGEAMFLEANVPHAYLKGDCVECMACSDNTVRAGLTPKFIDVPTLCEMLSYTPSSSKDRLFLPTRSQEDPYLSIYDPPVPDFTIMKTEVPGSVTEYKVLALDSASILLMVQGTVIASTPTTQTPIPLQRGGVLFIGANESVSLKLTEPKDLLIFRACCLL
Put plainly: MPI inhibition at elevated mannose 6-phosphate – biochemical, fluorescence intensity, high mannose 6-phosphate, primary screen (AID 1220).

Assay [20] in a line: THP-1 cell cytotoxicity, dose response, cytotoxicity control for non-replicating M. tuberculosis project (AID 489025). The assay is classed as functional.
The target of assay [21] is SWI/SNF-related matrix-associated actin-dependent regulator of chromatin subfamily A member 2 (Homo sapiens, UniProt P51531). Put plainly: Luminescence-based cell-based high throughput dose response assay to identify activators of the function of SWI/SNF related, matrix associated, actin dependent regulator of chromatin, subfamily a, member 2 (SMARCA2, BRM). The assay is classed as functional.

Assay [22] has as its target Paired box protein Pax-8 (Homo sapiens, UniProt Q06710). Put plainly: PAX8 transcriptional activity inhibition in RMG-I – RMG-I cells, luciferase, cherry-pick, dose response (AID 687027).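 Also: luciferase reporter driven by Pax8 target thyroperoxidase promoter measured by SteadyGlo luminescence.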 Format: functional, cell-based.
Assay [23] addresses T2, RNA-binding protein pos-1 (Caenorhabditis elegans, UniProt G5EF15).
T2 sequence (G5EF15 whole entry): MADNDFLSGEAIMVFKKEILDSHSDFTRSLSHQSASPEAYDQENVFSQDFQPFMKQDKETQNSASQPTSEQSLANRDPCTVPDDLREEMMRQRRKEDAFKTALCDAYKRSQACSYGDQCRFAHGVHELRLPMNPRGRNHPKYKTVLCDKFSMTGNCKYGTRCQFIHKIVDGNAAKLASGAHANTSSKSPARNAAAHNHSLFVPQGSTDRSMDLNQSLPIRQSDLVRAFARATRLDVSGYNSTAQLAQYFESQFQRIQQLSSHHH
Put plainly: disruptors of C. elegans POS-1 RNA interaction – biochemical, fluorescence polarization, dose response (AID 1964).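 Also: purified POS-1 fused to maltose binding protein made in E. coli; potency of compounds blocking POS-1 binding to fluorescent RNA.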 A general note: Fluorescence polarisation rises when a labelled molecule tumbles more slowly, as on binding a larger partner.

Assay [24] deals with Bifunctional protein GlmU (Mycobacterium tuberculosis, UniProt P9WMN3). Put plainly: Inhibitors of Mycobacterial Glucosamine-1-phosphate acetyl transferase (GlmU). Secondary screen. On the set-up: species or system Mycobacterium tuberculosis H37Rv.
The subject of assay [25] is HeLa. Put plainly: viability loss in HeLa cells – cell-based, 24 h, cherry-picked samples, cytotoxicity control, dose response (AID 504726).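 Also: potency for cytotoxicity as loss of luminescence signal.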 The conditions noted are these: Homo sapiens. The assay is classed as functional.
Assay [26] has as its target Cytochrome P450 2C19 (Homo sapiens, UniProt P33261). Put plainly: Cytochrome panel assay with activity outcomes. Panel member name: p450-cyp2c19 Compounds with AC50 equal or less than 10 uM are considered active. The assay is classed as functional. As to conditions: read-out: AC50.
Assay [27] concerns the target T3, Caspase-3 (Homo sapiens, UniProt P42574).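 Also: Dose-response selectivity test against caspase-3 for candidate inhibitors of sentrin-specific proteases (SENPs).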
T3 sequence (P42574 whole entry): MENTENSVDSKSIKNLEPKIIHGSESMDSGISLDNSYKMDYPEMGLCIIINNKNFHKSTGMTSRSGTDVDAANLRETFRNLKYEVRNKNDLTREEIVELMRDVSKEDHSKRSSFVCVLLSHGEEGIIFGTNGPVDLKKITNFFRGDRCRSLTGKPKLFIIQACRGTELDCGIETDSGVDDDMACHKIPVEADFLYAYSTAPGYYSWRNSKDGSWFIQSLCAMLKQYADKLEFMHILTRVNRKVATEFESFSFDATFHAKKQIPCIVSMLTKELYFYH
The assay is classed as functional.

Assay [28] addresses Cytochrome P450 3A4 (Homo sapiens, UniProt P08684).

SMILES strings stand for the structures. Calls of active or inactive are those of the source.

As usually defined, the Ki is the equilibrium dissociation constant of an inhibitor or competing ligand from its target. A word on the EC50: it is the concentration that produces a half-maximal response. A word on the IC50: it is the concentration that inhibits the measured activity by half. Broadly, the CC50 is the concentration at which the toxic effect on the cells reaches its halfway point. Broadly, the AC50 is the concentration giving half of the maximal activity seen.

Sequence of Death-associated protein kinase 3 (O43293 whole entry): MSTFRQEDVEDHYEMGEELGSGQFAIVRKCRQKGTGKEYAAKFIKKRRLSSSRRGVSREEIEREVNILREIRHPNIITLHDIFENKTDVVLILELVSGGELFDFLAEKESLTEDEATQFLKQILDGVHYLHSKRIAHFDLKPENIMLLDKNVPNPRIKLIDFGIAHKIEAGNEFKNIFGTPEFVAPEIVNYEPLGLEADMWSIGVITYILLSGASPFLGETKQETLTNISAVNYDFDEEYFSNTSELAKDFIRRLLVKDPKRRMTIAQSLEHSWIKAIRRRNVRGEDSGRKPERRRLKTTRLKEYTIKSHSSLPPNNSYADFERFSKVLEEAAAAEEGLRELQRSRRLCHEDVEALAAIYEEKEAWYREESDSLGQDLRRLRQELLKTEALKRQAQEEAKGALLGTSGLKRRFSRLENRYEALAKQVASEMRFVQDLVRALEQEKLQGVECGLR
Sequence of Tyrosine-protein kinase Lyn (P07948 whole entry): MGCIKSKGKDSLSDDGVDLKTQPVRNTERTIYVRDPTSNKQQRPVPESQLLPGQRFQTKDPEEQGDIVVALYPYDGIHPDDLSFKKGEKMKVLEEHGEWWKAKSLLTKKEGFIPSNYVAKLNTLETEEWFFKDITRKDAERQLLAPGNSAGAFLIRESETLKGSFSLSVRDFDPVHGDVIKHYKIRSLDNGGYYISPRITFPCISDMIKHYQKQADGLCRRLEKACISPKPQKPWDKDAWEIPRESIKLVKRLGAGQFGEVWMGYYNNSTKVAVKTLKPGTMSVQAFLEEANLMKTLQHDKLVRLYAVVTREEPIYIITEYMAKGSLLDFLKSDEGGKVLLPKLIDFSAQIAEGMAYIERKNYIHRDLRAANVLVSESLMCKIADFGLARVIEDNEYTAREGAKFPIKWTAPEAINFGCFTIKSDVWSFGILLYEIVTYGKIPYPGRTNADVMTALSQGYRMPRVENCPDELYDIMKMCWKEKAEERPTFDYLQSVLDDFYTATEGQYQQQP
Sequence of Serine/threonine-protein kinase D2 (Q9BZL6 whole entry): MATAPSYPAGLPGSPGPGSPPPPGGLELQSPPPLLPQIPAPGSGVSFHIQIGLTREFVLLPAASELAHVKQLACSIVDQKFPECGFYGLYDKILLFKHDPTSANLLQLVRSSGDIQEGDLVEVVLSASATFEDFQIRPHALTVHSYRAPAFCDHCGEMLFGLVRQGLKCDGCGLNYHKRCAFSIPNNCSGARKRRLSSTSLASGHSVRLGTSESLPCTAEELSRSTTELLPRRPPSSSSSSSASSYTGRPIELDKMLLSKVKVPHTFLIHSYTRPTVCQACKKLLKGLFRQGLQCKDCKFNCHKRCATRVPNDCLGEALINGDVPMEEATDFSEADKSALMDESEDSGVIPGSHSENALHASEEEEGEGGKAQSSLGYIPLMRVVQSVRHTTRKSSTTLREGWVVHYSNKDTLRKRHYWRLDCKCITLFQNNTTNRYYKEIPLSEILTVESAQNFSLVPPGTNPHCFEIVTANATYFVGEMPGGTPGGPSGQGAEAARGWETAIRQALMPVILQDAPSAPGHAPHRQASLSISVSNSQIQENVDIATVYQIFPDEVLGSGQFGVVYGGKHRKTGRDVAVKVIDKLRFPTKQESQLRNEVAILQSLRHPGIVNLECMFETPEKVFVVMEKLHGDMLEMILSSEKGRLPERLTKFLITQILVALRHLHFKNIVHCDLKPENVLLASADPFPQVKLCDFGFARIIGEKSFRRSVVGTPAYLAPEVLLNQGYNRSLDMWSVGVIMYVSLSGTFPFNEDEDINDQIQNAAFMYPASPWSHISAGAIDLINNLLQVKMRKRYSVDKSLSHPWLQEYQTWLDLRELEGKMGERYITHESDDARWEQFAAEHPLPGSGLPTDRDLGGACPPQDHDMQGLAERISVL
Sequence of Serine/threonine-protein kinase TAO1 (Q7L7X3 whole entry): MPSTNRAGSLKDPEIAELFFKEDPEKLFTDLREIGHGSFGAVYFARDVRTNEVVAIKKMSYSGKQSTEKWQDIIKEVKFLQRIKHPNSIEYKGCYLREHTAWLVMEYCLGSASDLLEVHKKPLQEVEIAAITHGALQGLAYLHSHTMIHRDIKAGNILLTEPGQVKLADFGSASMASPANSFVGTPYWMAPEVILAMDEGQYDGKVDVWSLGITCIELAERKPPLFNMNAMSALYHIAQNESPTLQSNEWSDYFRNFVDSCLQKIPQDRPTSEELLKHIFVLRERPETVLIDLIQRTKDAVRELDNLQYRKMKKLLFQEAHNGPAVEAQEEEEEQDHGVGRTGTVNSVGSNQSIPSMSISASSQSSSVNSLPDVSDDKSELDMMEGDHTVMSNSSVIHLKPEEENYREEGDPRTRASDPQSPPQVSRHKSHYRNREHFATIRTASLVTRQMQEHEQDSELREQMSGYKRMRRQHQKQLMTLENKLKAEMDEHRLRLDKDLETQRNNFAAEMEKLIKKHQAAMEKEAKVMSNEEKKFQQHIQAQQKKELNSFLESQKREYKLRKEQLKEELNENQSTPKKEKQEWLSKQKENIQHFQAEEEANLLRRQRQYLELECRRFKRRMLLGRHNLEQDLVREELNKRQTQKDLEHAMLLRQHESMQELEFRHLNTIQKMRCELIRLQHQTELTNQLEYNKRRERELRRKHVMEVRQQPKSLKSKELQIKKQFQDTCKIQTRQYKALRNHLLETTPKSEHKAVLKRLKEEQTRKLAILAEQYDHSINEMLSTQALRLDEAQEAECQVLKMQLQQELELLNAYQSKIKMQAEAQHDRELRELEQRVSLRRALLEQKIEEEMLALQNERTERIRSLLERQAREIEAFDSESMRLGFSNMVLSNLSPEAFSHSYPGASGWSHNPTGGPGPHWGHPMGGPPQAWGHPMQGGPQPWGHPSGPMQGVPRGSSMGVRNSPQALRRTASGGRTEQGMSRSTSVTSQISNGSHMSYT
Sequence of Cytochrome P450 3A4 (P08684 whole entry): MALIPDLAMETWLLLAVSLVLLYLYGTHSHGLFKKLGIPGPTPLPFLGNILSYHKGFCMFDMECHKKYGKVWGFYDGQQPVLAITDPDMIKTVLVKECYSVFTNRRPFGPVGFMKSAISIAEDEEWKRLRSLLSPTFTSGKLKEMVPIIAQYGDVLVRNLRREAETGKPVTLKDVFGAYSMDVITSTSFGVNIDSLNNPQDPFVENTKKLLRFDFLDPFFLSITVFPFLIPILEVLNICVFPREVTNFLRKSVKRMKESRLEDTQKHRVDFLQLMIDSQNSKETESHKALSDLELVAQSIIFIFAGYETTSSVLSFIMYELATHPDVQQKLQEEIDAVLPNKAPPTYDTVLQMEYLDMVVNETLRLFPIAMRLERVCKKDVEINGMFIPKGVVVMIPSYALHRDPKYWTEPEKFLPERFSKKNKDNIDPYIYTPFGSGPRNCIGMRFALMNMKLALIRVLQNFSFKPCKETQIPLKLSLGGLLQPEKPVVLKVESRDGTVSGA
Sequence of Paired box protein Pax-8 (Q06710 whole entry): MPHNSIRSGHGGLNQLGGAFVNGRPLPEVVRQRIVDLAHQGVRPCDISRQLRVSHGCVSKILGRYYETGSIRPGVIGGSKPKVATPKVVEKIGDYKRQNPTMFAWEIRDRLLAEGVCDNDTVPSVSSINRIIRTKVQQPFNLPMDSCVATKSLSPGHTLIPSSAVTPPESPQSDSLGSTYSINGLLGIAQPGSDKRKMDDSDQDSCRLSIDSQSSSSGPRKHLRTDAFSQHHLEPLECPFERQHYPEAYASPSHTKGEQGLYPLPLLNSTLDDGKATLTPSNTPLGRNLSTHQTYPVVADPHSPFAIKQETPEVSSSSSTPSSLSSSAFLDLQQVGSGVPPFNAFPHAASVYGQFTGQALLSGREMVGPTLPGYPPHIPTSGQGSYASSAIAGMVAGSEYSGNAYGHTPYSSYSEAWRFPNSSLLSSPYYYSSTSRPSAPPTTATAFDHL
Sequence of Serine/threonine-protein kinase 17A (Q9UEE5 whole entry): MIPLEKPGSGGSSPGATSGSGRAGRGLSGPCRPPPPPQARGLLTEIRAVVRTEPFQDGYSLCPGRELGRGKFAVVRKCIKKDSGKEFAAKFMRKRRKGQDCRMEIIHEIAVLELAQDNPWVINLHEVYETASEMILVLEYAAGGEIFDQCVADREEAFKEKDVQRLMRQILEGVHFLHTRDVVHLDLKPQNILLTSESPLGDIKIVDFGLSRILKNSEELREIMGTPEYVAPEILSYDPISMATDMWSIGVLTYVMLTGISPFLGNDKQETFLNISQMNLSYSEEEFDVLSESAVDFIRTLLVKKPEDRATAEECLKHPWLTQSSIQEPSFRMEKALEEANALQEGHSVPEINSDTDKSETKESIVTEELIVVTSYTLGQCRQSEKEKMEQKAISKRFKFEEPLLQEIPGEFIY
Sequence of Testis-specific serine/threonine-protein kinase 1 (Q9BXA7 whole entry): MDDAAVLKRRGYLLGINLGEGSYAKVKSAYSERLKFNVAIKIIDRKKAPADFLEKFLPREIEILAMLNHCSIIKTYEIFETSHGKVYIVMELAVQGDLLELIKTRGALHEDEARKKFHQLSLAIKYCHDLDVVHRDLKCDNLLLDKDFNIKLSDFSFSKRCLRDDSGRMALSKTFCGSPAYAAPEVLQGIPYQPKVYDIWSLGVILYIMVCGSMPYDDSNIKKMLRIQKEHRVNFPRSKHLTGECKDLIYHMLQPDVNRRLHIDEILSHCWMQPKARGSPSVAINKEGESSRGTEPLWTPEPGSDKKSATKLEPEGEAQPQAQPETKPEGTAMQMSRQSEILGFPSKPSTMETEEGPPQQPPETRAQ
Sequence of Mitogen-activated protein kinase 12 (P53778 whole entry): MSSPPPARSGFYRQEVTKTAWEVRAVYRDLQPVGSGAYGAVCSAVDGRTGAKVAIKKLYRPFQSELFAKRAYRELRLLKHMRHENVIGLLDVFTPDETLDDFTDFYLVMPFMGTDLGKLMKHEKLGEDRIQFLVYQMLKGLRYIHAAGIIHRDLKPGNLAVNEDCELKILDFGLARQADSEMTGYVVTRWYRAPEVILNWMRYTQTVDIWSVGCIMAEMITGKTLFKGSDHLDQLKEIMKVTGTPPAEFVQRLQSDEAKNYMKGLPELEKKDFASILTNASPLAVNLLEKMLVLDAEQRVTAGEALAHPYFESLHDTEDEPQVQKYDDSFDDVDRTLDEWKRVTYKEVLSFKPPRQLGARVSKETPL

As to `Cc1cccc(NC(=O)Nc2ccc3c(c2)CCc2sc4ncnc(N)c4c2-3)c1`, the Ki in assay [1] is > 2 µM (inactive); in assay [2] it was > 7.94 µM (inactive); in assay [3] it was > 10 µM (inactive); in assay [4], > 10 µM (inactive); in assay [5] it was 1.58 µM (active); in [6], > 2 µM (inactive). The Ki in [7] was > 3.98 µM (inactive); in assay [8], > 1.26 µM (inactive); in assay [9] it was 0.126 µM (active); in assay [10] it was 3.98 µM (active); in assay [11], 2 µM (active); in assay [12] it was > 1.58 µM (inactive). Besides, the inhibitory constant (Ki) in assay [13] was 3.16 µM (active); in assay [14], > 2 µM (inactive); in assay [15], > 6.31 µM (inactive); in assay [16], 0.316 µM (active).
`Cc1ccc(-n2sc3ccccc3c2=O)cc1`: the concentration giving a half-maximal response (EC50) in [17] is 23.3 µM (active); in assay [18] it was 24.4 µM (active); in [21], > 91.2 µM (inactive). In addition, the 50% inhibitory concentration (IC50) in assay [19] was 22 µM (active). In addition, the CC50 in assay [20] was 18.6 µM (active).
As for `CCC(=O)NC(c1ccc(C)cc1)c1ccc2cccnc2c1O` (stereo not drawn), the AC50 in [22] was 1.81 µM (active).
As for `N/C(=N\N=C/c1ccc(-c2ccc(O)c(C(=O)O)c2)o1)N[N+](=O)[O-]`, the concentration for a half-maximal effect (EC50) in [23] was 29.9 µM (active). For the same molecule, the half-maximal inhibitory concentration (IC50) in assay [24] is 28.4 µM (active). Moreover, the values for the AC50 in assay [25] and in [26] were 151 µM (active) and 39.8 µM (inconclusive), respectively.
As for `CC(=O)N(/N=C1\Sc2ccccc2C1=O)c1ccccc1C`, the IC50 in assay [27] was 42.2 µM (active). Besides, in [28], the AC50 is 31.6 µM (inconclusive).
